Counter-ions that a name gives are not always drawn.
Key:
[1] = test system: diet-induced hypercholesterolemic Sprague Dawley rats; assay: Diet-induced hypercholesterolemia in wild type Sprague Dawley rats (total, HDL, LDL cholesterol); assay type: in vivo, rat; conditions: Sprague Dawley rats on atherogenic diet, oral once daily, day 5, FIGS. 5a–c
From the text: Experimental Procedure: Six week-old male Sprague Dawley rats (obtained from Harlan of San Diego, Calif.) were housed in a fixed 12—12-hr artificial light-dark cycle, and maintained on a high cholesterol atherogenic diet (Paigen's Diet, obtained from Research Diet Inc. of New Brounswick, N.J.) was provided ad libitum. Animals were allowed six days to acclimate in this experimental environment prior to the initiation of the study.
Prior to initiation of treatment, the animals were bled from the tail vein (100–200 μL of whole blood) and serum levels of cholesterol were measured in duplicate (Cholesterol Infinity kits; Sigma, St. Louis, Mo.). Based on these initial measures, animals were sorted into groups with approximately the same average total cholesterol levels. Once sorted, the animals were housed three per cage and maintained on Paigen's diet ad libitum. All compounds to be tested were suspended in sesame oil and administered in a final volume of 3 ml/kg. Drug is administered by oral gavage once daily at the beginning of the artificial light cycle. To obtain a base line for lipid measurement, a control group maintained on standart rodent diet is included (lean control).
Treatment Group A (n=6/group): (See Results in FIG. 5a) • 1) Lean control (Sesame Oil) • 2) Control • 3) Compound 2 (0.3 mg/kg) • 4) Compound 2 (1 mg/kg) • 5) Compound 2 (3 mg/kg)
Treatment Group B (n=6/group): (See Results in FIG. 5b) • 1) Lean control (Sesame Oil) • 2) Control • 3) Compound 6 (3 mg/kg)
Treatment Group C (n=6/group): (See Results in FIG. 5c) • 1) Lean control (10% HPβCD) • 2) Control • 3) Compound 25 (1 mg/kg) • 4) Compound 25 (3 mg/kg) • 5) Compound 25 (10 mg/kg) • 6) Compound 25 (15 mg/kg) • The compounds were dissolved in a 10% hydroxy propyl beta cyclodextrin solution, and administered to animals in a volume of 10 ml/kg/dose.
To monitor the effect of the tested compounds, animals were bled from the tail vein at the end of the dark cycle on days 0 (for sorting) and day 5 of the treatment period. Fed serum cholesterol levels were measured in duplicate. The blood is kept at room temperature to allow coagulation, after which the serum is separated and assayed for total cholesterol (Infinity reagent, Sigma), HDL cholesterol (using HDL precipitating reagent and infinity reagent, Sigma) and LDL cholesterol (EZLDL kit, Sigma). As shown in FIGS. 5a–c, all compounds tested show significant reduction in total and LDL cholesterol levels and a significant increase in HDL cholesterol levels compared to high fat fed control animals.

[2] = test system: carcinogen induced mammary tumors; assay: Progression of carcinogen induced mammary tumors in Sprague Dawley rats; assay type: in vivo, rat; conditions: oral once daily for four weeks; for growth / progression of mammary (breast cancer) tumors: vs vehicle treated controls; for growth / progression of mammary (breast cancer) tumors / regression of tumors / number of static tumors: FIG. 6; for number of static tumors: compared to control animals
Protocol: (§1) Procedure: Five week-old female Sprague Dawley rats (Harlan) were housed in a fixed 12–12-hr artificial light-dark cycle, and maintained on a standard rodent diet provided ad libitum. Animals were allowed two days to acclimate in this experimental environment prior to the initiation of the study.
To induce mammary tumors, the female […] were injected intraperitoneally with the carcinogen n-nitroso-n-methylurea, in a single dose of 50 mg/kg in acidified normal saline (pH 4 w/acetic acid) at a final volume of 10 mg/ml (5 ml/kg). After eight weeks, mammary tumors are detected, and the tumor bearing females are sorted into treatment groups. Once sorted, the animals were housed four per cage and provided rodent diet ad libitum. All animals are treated with compound 1 or a vehicle for four weeks, during which time changes in tumor size are monitored. Tumors were classified as regressing, static or progressing.
Treatment groups (n=8/group): • 1) Control (sesame oil) • 2) Compound 6 (20 mg/kg) • 3) Compound 11 (100 mg/kg) • 4) Compound 13 (50 mg/kg) • 5) Compound 24 (50 mg/kg) • 6) Compound 25 (20 mg/kg) • 7) Compound 25 (100 mg/kg)
All of the compounds tested were suspended in sesame oil, and administered to animals in a volume of 3 ml/kg/dose, except compound 25 which was dissolved in a 10% hydroxy propyl beta cyclodextrin solution, and administered to animals in a volume of 10 ml/kg/dose. All treatments were administered by oral gavage once daily for four weeks.
To monitor the effect of the tested compound, animals were examined for mammary tumors once every week. Tumors were classified into one of three categories, progressing, static or regressing.

KKA^y mice = assay: Oral treatment of type 2 diabetes in KKA^y mice (serum glucose, triglyceride, cholesterol); assay type: in vivo, mouse
From the text: The procedure for this in-vivo assay for anti-diabetes activity was described in detail by Iwatsuka, et al. (1970 General Survey of Diabetic Features of Yellow KK Mice. Endocrinol. Japon. 17: 23–35, incorporated herein in its entirety by reference).
as §1, with “Experimental Procedures: Six to eight” for “Procedure: Five”, “male KKA^y mice (obtained from Jackson Labs of Bar Harbord, Me.)” for “female Sprague Dawley rats (Harlan)”
Prior to initiation of treatment with the compounds of the invention, the animals were bled from the tail vein (100–200 μL of whole blood) and serum levels of glucose and triglycerides were measured in duplicate (Trinder kits; Sigma, St. Louis, Mo.). Based on these initial measures, animals were sorted into groups with approximately the same average serum glucose levels. Once sorted, the animals were housed one per cage and provided rodent diet ad libitum. Unless otherwise indicated, compounds were suspended in sesame oil, and administered by oral gavage once daily to animals in a volume of 3 ml/kg/dose.
Treatment Group A (n=5/group): (See Results in FIG. 2a) • 1) KKA^y vehicle control (sesame oil) • 2) Compound 1 (3 mg/kg) • 3) Compound 1 (10 mg/kg) • 4) Compound 2 (3 mg/kg) • 5) Compound 2 (10 mg/kg)
Treatment Group B (n=6/group): (See Results in FIG. 2b) • 1) KKA^y vehicle control (sesame oil) • 2) Compound 11 (15 mg/kg)
Treatment Group C (n=6/group): (See Results in FIG. 2c) • 1) KKA^y vehicle control (sesame oil) • 2) Compound 13 (15 mg/kg)
Treatment Group D (n=6/group): (See Results in FIG. 2d) • 1) KKA^y vehicle control (CMC) • 2) Compound 25 (3 mg/kg, CMC) Compound 25 was suspended in a solution of carboxymethyl cellulose (CMC; 1% carboxy methyl cellulose in H2O, with 10% polyethelene glycol 400), and administered to animals in a volume of 5 ml/kg/dose.
Treatment Group E (n=5/group): (See Results in FIG. 2e) • 1) KKA^y vehicle control (10% HPβCD) • 2) Compound 25 (1 mg/kg) • 3) Compound 25 (3 mg/kg) • 4) Compound 25 (10 mg/kg) Compound 25 was dissolved in a 10% hydroxy propyl beta cyclodextrin solution, and administered to animals in a volume of 10 ml/kg/dose.
Serum glucose, triglyceride and/or cholesterol levels were measured in duplicate. The blood is kept at room temperature to allow coagulation, after which the serum is separated and assayed for glucose, triglyceride and/or cholesterol levels. As shown in FIGS. 2a–2d all of the compounds tested reduced serum glucose and triglyceride levels, some with doses as low as 3 mg/kg when administered once a day.

db/db mutant mice = assay: Oral treatment of type 2 diabetes in db/db mutant mice (serum glucose, triglyceride); assay type: in vivo, mouse
Protocol: Experimental Procedure: Seven week-old female db/db mutant mice (C57BL/KsJ-db +/+m; Jackson Labs, Bar Harbour, Me.) were housed in a fixed 12—12-hr artificial light-dark cycle, and maintained on a standard high fat diet (containing at least 11% crude fat) provided ad libitum (Teklad S-2335). Animals were allowed two days to acclimate in this experimental environment prior to the initiation of the study. Prior to initiation of treatment, the animals were bled from the tail vein (100–200 μL of whole blood) and serum levels of glucose and triglycerides were measured in duplicate (Trinder kits; Sigma, St. Louis, Mo.). Based on these initial measures, animals were sorted into treatment groups with approximately the same average serum glucose levels. Once sorted, the animals were housed five per cage and provided high fat rodent diet ad libitum.
Treatment Groups (n=5/group): • 1) db/db control (CMC) • 2) Compound 25 (0.1 mg/kg, in CMC) • 3) Compound 25 (0.3 mg/kg, in CMC) • 4) Compound 25 (1 mg/kg, in CMC)
Compound 25 was suspended in a solution of carboxymethyl cellulose (CMC; 1% carboxy methyl cellulose in H2O, with 10% polyethelene glycol 400), and administered to animals in a volume of 5 ml/kg/dose. The drug is administered by oral gavage once daily at the beginning of the artificial light cycle.
To monitor the effect of the tested compounds, animals were bled following a three-hour fast at the end of the dark cycle on days 0, 7, 14 of the treatment period. Fasting serum glucose and triglyceride levels were measured in duplicate. The blood is kept at room temperature to allow coagulation, after which the serum is separated and. assayed for glucose and triglyceride levels.

[3] = Oral bioavailability, single dose pharmacokinetic study in rats (plasma concentration by HPLC); assay type: in vivo, Sprague Dawley rats; conditions: rat
From the text: Oral bioavailability is an important pharmaceutical characteristic for a compound to advance through drug development. A basic assessment of the oral bioavailability of a compound can be done in a single dose pharmacokinetic study in wild type rats.
Six to eight week-old male Sprague Dawley rats (Harlan) were housed in a fixed 12–12- hr artificial light-dark cycle, and maintained on a standard rodent diet provided ad libitum. Animals were allowed two days to acclimate in this experimental environment prior to the initiation of the study. Compounds 24 and 25 were dissolved in a 10% hydroxypropyl beta cyclodextrin solution and administered by oral gavage in a final dose of 10 mg/kg in a volume of 5 ml/kg. Treatment groups were divided as follows:
Treatment groups(n=3/group): • 1) Compound 24 (10 mg/kg) • 2) Compound 25 (10 mg/kg)
Each animal received a single treatment, after which, the animal was bled from the tail vein at the following time points: 0.5, 1, 2, 4, 6, 9, 12, and 26 hours after treatment. To measure the concentration of each compound in plasma, blood samples were collected in heparin-coated tubes, and the plasma was isolated and analyzed by HPLC.

[4] = KKA^y mice, oral once daily, vs control mice, FIGS. 2a–d
[5] = oral once daily in CMC, compared to control animals, FIG. 3
[6] = KKA^y mice, 1, 3, 10 mg/kg oral in 10% HPβCD, following 4 weeks of treatment, FIG. 2e

| Compound | growth / progression of mammary (breast cancer) tumors [2] | serum glucose level (KKA^y mice; [4]) | serum triglyceride level (KKA^y mice; [4]) | regression of tumors [2] | number of static tumors [2] | other results |
| --- | --- | --- | --- | --- | --- | --- |
| CCN1C(=O)CC(C)(C)c2cc(C)c(-c3cc(/C=C4\SC(=O)NC4=O)ccc3Cl)cc21 [Compound 6, 5-[3-(1-Ethyl-4,4,6-trimethyl-2-oxo-1,2,3,4-tetrahydro-quinolin-7-yl)-4-chloro-benzylidene]-thiazolidine-2,4-dione] | slow or cause regression | – | – | – | – | HDL cholesterol [1]: increasing; LDL cholesterol [1]: decrease; total cholesterol [1]: decrease |
| Cc1cc2c(cc1-c1cc(/C=C3\SC(=O)NC3=O)ccc1OC(F)(F)F)N(C(C)C)C(=O)CC2(C)C [Compound 11, 5-[3-(1-Isopropyl-4,4,6-trimethyl-2-oxo-1,2,3,4-tetrahydro-quinolin-7-yl)-4-trifluoromethoxy-benzylidene]-thiazolidine-2,4-dione] | slow or cause regression | decrease | decrease | without causing any regressions | only increase the number of static tumors | – |
| Cc1cc2c(cc1-c1cc(/C=C3\SC(=O)NC3=O)ccc1OC(F)(F)F)N(C)C(=O)CC2(C)C [Compound 1, 5-[3-(1,4,4,6-Tetramethyl-2-oxo-1,2,3,4-tetrahydro-quinolin-7-yl)-4-trifluoromethoxy-benzylidene]-thiazolidine-2,4-dione] | – | decrease | decrease | – | – | – |
| CCN1C(=O)CC(C)(C)c2cc(C)c(-c3c(F)c(/C=C4\SC(=O)NC4=O)cc(F)c3OC)cc21 [Compound 13, 5-[3-(1-Ethyl-4,4,6-trimethyl-2-oxo-1,2,3,4-tetrahydro-quinolin-7-yl)-2,5-difluoro-4-methoxy-benzylidene]-thiazolidine-2,4-dione] | slow or cause regression | decrease | decrease | without causing any regressions | only increase the number of static tumors | – |
| CCN1C(=O)CC(C)(C)c2cc(C)c(-c3cc(/C=C4\SC(=O)NC4=O)ccc3OC(F)(F)F)cc21 [Compound 25, 5-[3-(1-Ethyl-4,4,6-trimethyl-2-oxo-1,2,3,4-tetrahydro-quinolin-7-yl)-4-trifluoromethoxy-benzylidene]-thiazolidine-2,4-dione, TRIS Salt] | slow or cause regression | – | – | caused the regression of tumors | – | dose ameliorating the symptoms of diabetes (as low as) (db/db mutant mice; once daily oral): ≥ 0.3 mg/kg; fasting serum glucose (db/db mutant mice; [5]): reduced; fasting serum triglyceride (db/db mutant mice; [5]): reduced; serum glucose level (KKA^y mice; [6]): unexpectedly strong and simultaneous reduction; serum total cholesterol level (KKA^y mice; [6]): unexpectedly strong and simultaneous reduction; serum triglyceride level (KKA^y mice; [6]): unexpectedly strong and simultaneous reduction; concentration of compound in plasma ([3]; single oral dose 10 mg/kg in 10% HPβCD, 0.5–26 hours, FIG. 7): significantly higher concentration; oral bioavailability ([3]; single oral dose 10 mg/kg, Compound 25 over Compound 24): improved bioavailability; dose causing regression of tumors (as low as) [2]: ≥ 20 mg/kg |
